How the values were obtained:
[1] = test system: bamyardgrass; test: Test B flood test barnyardgrass; assay type: in vivo, Echinochloa crus-galli; conditions: for Plant response rating, Barnyardgrass: Rate 500 g/ha
In short: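 Read-out is a visual response score from 0 (no effect) to 10 (complete control), assigned by comparison with untreated controls. Treatment was applied at the 2-leaf stage, and plants stayed in the greenhouse for twelve to sixteen days before scoring.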

[2] = test system: winter wheat; test: Test E winter wheat; assay type: in vivo, Triticum aestivum; conditions: Preemergence; for Wheat (winter) plant response rating (0 to 100 scale): Rate 250 g/ha; for Plant response rating, Wheat (winter): 0 to 100 scale where 0 is no effect and 100 is complete control
[3] = test system: surinam grass; test: Test B pre/postemergence surinam grass; assay type: in vivo, Brachiaria decumbens; conditions: for B. signalgrass plant response rating (0 to 10 scale): 0 is no effect
In short: (§1)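 Response is a visual 0-to-10 score relative to untreated plants, where 0 means no effect and 10 means complete control, taken twelve to sixteen days after application. Treatments went onto soil at planting and onto foliage of 1- to 4-leaf plants, using a surfactant-containing non-phytotoxic solvent.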

[4] = test system: winter barley; test: Test E winter barley; assay type: in vivo, Hordeum vulgare; conditions: Preemergence; for Barley (winter) plant response rating (0 to 100 scale): Rate 250 g/ha; for Plant response rating, Barley (winter): 0 to 100 scale where 0 is no effect and 100 is complete control
[5] = test system: blackgrass; test: Test E blackgrass; assay type: in vivo, Alopecurus myosuroides; conditions: Preemergence; for Blackgrass plant response rating (0 to 100 scale): Rate 250 g/ha; for Plant response rating, Blackgrass: 0 to 100 scale where 0 is no effect and 100 is complete control
[6] = test system: winter wheat; test: Test E winter wheat; assay type: in vivo, Triticum aestivum; conditions: Postemergence; for Plant response rating, Wheat (winter): 0 to 100 scale
In short: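 Greenhouse test: for postemergence, foliar application at 1- to 4-leaf stage; compound in non-phytotoxic solvent with surfactant. Rating is visual, relative to untreated controls, about 21 to 28 days after treatment.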

[7] = test system: wild oat; test: Test E wild oat; assay type: in vivo, Avena fatua; conditions: Preemergence; for Wild oat plant response rating (0 to 100 scale): Rate 250 g/ha; for Plant response rating, Wild oat: 0 to 100 scale where 0 is no effect and 100 is complete control
[8] = test system: bedstraw; test: Test B pre/postemergence bedstraw; assay type: in vivo, Galium aparine; conditions: for Bedstraw plant response rating (0 to 10 scale): 0 is no effect
In short: as §1

[9] = test system: green foxtail; test: Test E green foxtail; assay type: in vivo, Setaria viridis; conditions: Preemergence; for Green foxtail plant response rating (0 to 100 scale): Rate 250 g/ha; for Plant response rating, Green foxtail: 0 to 100 scale where 0 is no effect and 100 is complete control
[10] = test system: Italian ryegrass; test: Test E Italian ryegrass; assay type: in vivo, Lolium multiflorum; conditions: Preemergence; for I. Ryegrass plant response rating (0 to 100 scale): Rate 250 g/ha; for Plant response rating, I. Ryegrass: 0 to 100 scale where 0 is no effect and 100 is complete control
[11] = test system: wild oat; test: Test B pre/postemergence wild oat; assay type: in vivo, Avena fatua
In short: as §1

[12] = Rate 62 g/ha, headed Pre-emergence (flood test species), scale 0 to 10 (0 no effect, 10 complete control)
[13] = Rate 125 g/ha, Pre-emergence, flood test species, scale 0 to 10 where 0 is no effect and 10 is complete control
[14] = Rate 250 g/ha, Pre-emergence, flood-test species, scale 0 to 10, 0 is no effect, 10 is complete control
[15] = headed Pre-emergence (flood test species), scale 0 to 10 (0 no effect, 10 complete control)
[16] = Postemergence, Rate 125 g/ha, scale of 0 to 10 where 0 is no effect and 10 is complete control
[17] = Preemergence, Rate 62 g/ha, scale of 0 to 10 where 0 is no effect and 10 is complete control
[18] = Preemergence, Rate 125 g/ha, 10 is complete control
[19] = Preemergence, Rate 250 g/ha, scale 0 to 10, 0 is no effect, 10 is complete control
[20] = Preemergence, Rate 500 g/ha, scale 0 to 10 (0 no effect, 10 complete control)
[21] = Rate 62 g/ha, Postemergence, scale of 0 to 10 where 0 is no effect and 10 is complete control
[22] = Rate 250 g/ha, Postemergence, scale 0 to 10, 0 is no effect, 10 is complete control
[23] = Rate 500 g/ha, Postemergence, scale 0 to 10, 0 no effect, 10 complete control
[24] = Rate 1000 g/ha, 0 is no effect and 100 is complete control
[25] = Rate 500 g/ha, Postemergence, scale 0 to 10
[26] = Preemergence, Rate 500 g/ha, scale of 0 to 10 where 0 is no effect and 10 is complete control
[27] = Rate 125 g/ha, Postemergence, scale 0 to 10

## CC(C)N(Cc1ccccc1)C(=O)n1oc(=O)n(C(C)C)c1=O [Compound 165]
[1]; [12]
  Barnyardgrass plant response rating: 0
[1]; [13]
  Barnyardgrass plant response rating: 0
[1]; [14]
  Barnyardgrass plant response rating: 0
[1]; [15]
  Plant response rating, Barnyardgrass: 1
[2]
  Wheat (winter) plant response rating (0 to 100 scale): 40
[2]; Rate 500 g/ha
  Plant response rating, Wheat (winter): 50
[2]; Rate 1000 g/ha
  Plant response rating, Wheat (winter): 70
[3]; [16]
  B. signalgrass plant response rating: 1
[3]; [17]
  B. signalgrass plant response rating: 0
[3]; [18]
  B. signalgrass plant response rating (0 to 10 scale): 4
[3]; [19]
  B. signalgrass plant response rating: 6
[3]; [20]
  B. signalgrass plant response rating: 6
[3]; [21]
  B. signalgrass plant response rating: 0
[3]; [22]
  Plant response rating, B. signalgrass: 5
[3]; [23]
  B. signalgrass plant response rating: 8
[4]
  Barley (winter) plant response rating (0 to 100 scale): 20
[4]; Rate 500 g/ha
  Plant response rating, Barley (winter): 55
[4]; Rate 1000 g/ha
  Plant response rating, Barley (winter): 50
[5]
  Blackgrass plant response rating (0 to 100 scale): 40
[5]; Rate 500 g/ha
  Plant response rating, Blackgrass: 60
[5]; Rate 1000 g/ha
  Plant response rating, Blackgrass: 100
[6]; [24]
  Plant response rating, Wheat (winter): 85
[6]; Rate 500 g/ha, 0 no effect, 100 complete control
  Plant response rating, Wheat (winter): 65
[6]; Rate 250 g/ha, 0 to 100 scale where 0 is no effect and 100 is complete control
  Wheat (winter) plant response rating: 40
[7]
  Wild oat plant response rating (0 to 100 scale): 55
[7]; Rate 500 g/ha
  Plant response rating, Wild oat: 60
[7]; Rate 1000 g/ha
  Plant response rating, Wild oat: 70
[8]; [16]
  Bedstraw plant response rating: 0
[8]; [17]
  Bedstraw plant response rating: 0
[8]; [18]
  Bedstraw plant response rating (0 to 10 scale): 1
[8]; [19]
  Bedstraw plant response rating: 3
[8]; [20]
  Bedstraw plant response rating: 4
[8]; [21]
  Bedstraw plant response rating: 0
[8]; [22]
  Plant response rating, Bedstraw: 4
[8]; [25]
  Bedstraw plant response rating: 8
[9]
  Green foxtail plant response rating (0 to 100 scale): 50
[9]; Rate 500 g/ha
  Plant response rating, Green foxtail: 55
[9]; Rate 1000 g/ha
  Plant response rating, Green foxtail: 65
[10]
  I. Ryegrass plant response rating (0 to 100 scale): 60
[10]; Rate 500 g/ha
  Plant response rating, I. Ryegrass: 55
[10]; Rate 1000 g/ha
  Plant response rating, I. Ryegrass: 70
[11]; [17]
  Wild oats plant response rating: 4
[11]; Preemergence, Rate 125 g/ha, 0 is no effect, 10 is complete control
  Wild oats plant response rating (0 to 10 scale): 4
[11]; [19]
  Wild oats plant response rating: 4
[11]; [20]
  Wild oats plant response rating: 6
[11]; [22]
  Plant response rating, Wild oats: 3
[11]; [25]
  Wild oats plant response rating: 3

## CC(C)N(C(=O)n1oc(=O)n(-c2ccc(OC(F)(F)F)cc2)c1=O)c1ccc(F)cc1 [Compound 202]
[1]; [12]
  Barnyardgrass plant response rating: 0
[1]; [13]
  Barnyardgrass plant response rating: 0
[1]; [14]
  Barnyardgrass plant response rating: 0
[1]; [15]
  Plant response rating, Barnyardgrass: 0
[2]
  Wheat (winter) plant response rating (0 to 100 scale): 50
[2]; Rate 500 g/ha
  Plant response rating, Wheat (winter): 40
[2]; Rate 1000 g/ha
  Plant response rating, Wheat (winter): 70
[3]; [17]
  B. signalgrass plant response rating: 0
[3]; [18]
  B. signalgrass plant response rating (0 to 10 scale): 0
[3]; [19]
  B. signalgrass plant response rating: 0
[3]; [26]
  Plant response rating, B. signalgrass: 0
[3]; [21]
  B. signalgrass plant response rating: 0
[3]; Rate 125 g/ha, Postemergence, scale 0 (no effect) to 10 (complete control)
  B. signalgrass plant response rating: 0
[3]; [22]
  Plant response rating, B. signalgrass: 0
[3]; [23]
  B. signalgrass plant response rating: 0
[4]
  Barley (winter) plant response rating (0 to 100 scale): 20
[4]; Rate 500 g/ha
  Plant response rating, Barley (winter): 40
[4]; Rate 1000 g/ha
  Plant response rating, Barley (winter): 70
[5]
  Blackgrass plant response rating (0 to 100 scale): 30
[5]; Rate 500 g/ha
  Plant response rating, Blackgrass: 50
[5]; Rate 1000 g/ha
  Plant response rating, Blackgrass: 30
[6]; [24]
  Plant response rating, Wheat (winter): 60
[6]; Rate 500 g/ha, 0 is no effect, 100 is complete control
  Plant response rating, Wheat (winter): 55
[7]
  Wild oat plant response rating (0 to 100 scale): 50
[7]; Rate 500 g/ha
  Plant response rating, Wild oat: 60
[7]; Rate 1000 g/ha
  Plant response rating, Wild oat: 80
[8]; [17]
  Bedstraw plant response rating: 0
[8]; [18]
  Bedstraw plant response rating (0 to 10 scale): 0
[8]; [19]
  Bedstraw plant response rating: 6
[8]; [26]
  Plant response rating, Bedstraw: 2
[8]; [21]
  Bedstraw plant response rating: 1
[8]; [27]
  Bedstraw plant response rating: 2
[8]; Rate 250 g/ha, Postemergence
  Plant response rating (0 to 10; 0 is no effect, 10 is complete control), Bedstraw: 4
[8]; [25]
  Bedstraw plant response rating: 4
[9]
  Green foxtail plant response rating (0 to 100 scale): 70
[9]; Rate 500 g/ha
  Plant response rating, Green foxtail: 85
[9]; Rate 1000 g/ha
  Plant response rating, Green foxtail: 100
[10]
  I. Ryegrass plant response rating (0 to 100 scale): 30
[10]; Rate 500 g/ha
  Plant response rating, I. Ryegrass: 60
[10]; Rate 1000 g/ha
  Plant response rating, I. Ryegrass: 60
[11]; [17]
  Wild oats plant response rating: 0
[11]; [19]
  Wild oats plant response rating: 0
[11]; [26]
  Plant response rating, Wild oats: 5
[11]; [21]
  Wild oats plant response rating: 0
[11]; [27]
  Wild oats plant response rating: 0
[11]; Rate 250 g/ha, Postemergence
  Plant response rating (0 to 10; 0 is no effect, 10 is complete control), Wild oats: 0

— patent US6737383B1, “Herbicidal oxadiazolidines” (priority 1999, dated 2004)
